Our source for the Kd and Ki values is patent publication US20260125375A1 (Pfizer Inc., priority 2022, published 2026).

For one test, the target named is T1, C-CBL (46-435) (Homo sapiens, UniProt P22681).
T1 construct: N-terminal biotinylated WT CBL-B (36-427) and C-CBL (46-435) were captured on a streptavidin (SA) coated sensor chip
T1 sequence (P22681 46-435): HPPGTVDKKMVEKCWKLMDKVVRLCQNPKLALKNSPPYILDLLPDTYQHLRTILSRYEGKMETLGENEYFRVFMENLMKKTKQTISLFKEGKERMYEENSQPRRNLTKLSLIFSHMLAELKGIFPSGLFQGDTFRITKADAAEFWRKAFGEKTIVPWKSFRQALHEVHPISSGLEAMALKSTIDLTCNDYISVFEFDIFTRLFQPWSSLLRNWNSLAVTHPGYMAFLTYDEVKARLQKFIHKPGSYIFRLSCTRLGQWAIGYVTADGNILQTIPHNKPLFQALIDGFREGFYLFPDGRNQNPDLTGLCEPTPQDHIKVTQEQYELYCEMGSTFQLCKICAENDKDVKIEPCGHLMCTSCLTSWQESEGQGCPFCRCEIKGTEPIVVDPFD
Put plainly: Surface Plasmon Resonance (SPR) assay, binding affinity and kinetics, C-CBL. To be noted: SPR at 10° C., biotinylated C-CBL (46-435) on streptavidin chip; geometric mean; read-out: C-CBL SPR Kd (nM) GMean. As to the method:
(§1) Surface Plasmon Resonance (SPR) Assay
(§2) The purpose of the SPR assay is to evaluate the binding affinity and kinetics of the compound of disclosure binding to CBL-B and C-CBL.
(§3) The binding affinity and kinetics of compound binding to CBL-B and C-CBL were measured by Surface Plasmon Resonance (SPR) using either Biacore S200, 8K or 8K+ (Cytiva, Marlborough, MA) instruments. N-terminal biotinylated WT CBL-B (36-427) and C-CBL (46-435) were captured on a streptavidin (SA) coated sensor chip to achieve approximately 5000 to 6000 RUs of surface density. Un-functionalized SA surfaces with no immobilized protein served as reference for binding kinetic analysis. All the samples were prepared in buffer consisting of 10 mM HEPES, 150 mM NaCl, 0.05% Tween-20, 5% glycerol, […], 2% DMSO, pH 7.2. The same buffer was used as the running buffer during the experiments. Compound binding kinetics were measured in either multi-cycle or single-cycle kinetic format.
(§4) Multi-cycle kinetic analysis (MCK): A two-fold, 10-point serial dilution of test compounds was set-up in a 96-well microplate (Greiner; Cat #650101) with a top concentration of either 10 μM or 100 μM. Binding kinetics was measured at 10° C. by injecting serial dilution of compounds onto both reference and CBL immobilized channels at a flow rate of 100 μL/min and association time of 90 seconds. Compound dissociation was monitored for >400 seconds during each cycle. No additional regeneration was used. DMSO calibration curve was obtained before and after compound analysis by injecting 0-4% of DMSO in assay buffer. A suitable compound with known affinity and kinetics was tested once in every experiment as a positive control to assess activity of the captured proteins on the surface.
(§5) Single-cycle kinetic analysis (SCK): A 3-fold, 6-point serial dilution of compounds was set-up in a deep 96-well microplate (Greiner Bio; Cat #780201) with the highest concentration of 1 μM (concentration range: […]). Binding kinetics was measured at 10° C. by injecting serial dilutions of compounds in increasing order onto reference as well as CBL immobilized channels at a flow rate of 100 μL/min and association time of 120 seconds. Compound dissociation was monitored for >5400 seconds. Two buffer blanks were also run in a single-cycle kinetics format before the compound run for double referencing. No additional regeneration was used. DMSO calibration curve was obtained before and after compound analysis by injecting 0-4% of DMSO in the assay buffer. A suitable compound with known affinity and kinetics was tested once in every experiment as a positive control to assess activity of the captured proteins on the surface.

The target of the next test is T2, CBL-B (residues 36-427) (Homo sapiens, UniProt Q13191).
T2 construct: Purified CBL-B (residues 36-427) and C-CBL (residues 46-435) proteins from baculovirus-infected insect cells; made in house; host or cells: baculovirus-infected insect cells
Put plainly: Ligand Displacement Assay (LDA), HTRF competitive binding against BODIPY-labeled fluorescent tracer, CBL-B. To be noted: geometric mean of the number of tests, read-out: CBL-B Ki (nM) GMean. An excerpt:
(§6) Ligand Displacement Assay (LDA)
(§7) The purpose of the homogeneous time-resolved fluorescence energy transfer (HTRF) ligand displacement assay is to determine whether the compounds of the disclosure are competitive with a BODIPY-labeled compound; “fluorescent tracer” aka [6-cyclopropyl-5-(17-{5-[(3,5-dimethyl-2H-pyrrol-2-ylidene-KN)methyl]-1H-pyrrol-2-yl-κN}-15-oxo-5,8,11-trioxa-2,14-diazaheptadecan-1-yl)-N-(3-{3-[(4-methyl-4H-1,2,4-triazol-3-yl)methyl]oxetan-3-yl}phenyl)pyridine-2-carboxamidato](difluorido)boron and to assess CBL-B binding selectivity over C-CBL. The synthesis of this fluorescent tracer compound is described below.
(§8) Purified CBL-B (residues 36-427) and C-CBL (residues 46-435) proteins from baculovirus-infected insect cells were biotin labeled on their amino-terminal AviTag™ epitopes by the E. coli biotin ligase BirA to bind terbium-labeled streptavidin (SA-Tb). After optimizing the assays and determining KD values for the fluorescent tracer to CBL-B and C-CBL, compounds were tested using three-fold serial dilutions in duplicate from a top concentration of […] with a final DMSO concentration of 2%. […] The Ki (nM) values reported are the geometric means (GMean) of the number of tests conducted.

Another test has as its target T3, WT CBL-B (36-427) (Homo sapiens, UniProt Q13191).
T3 construct: N-terminal biotinylated WT CBL-B (36-427) and C-CBL (46-435) were captured on a streptavidin (SA) coated sensor chip
Put plainly: Surface Plasmon Resonance (SPR) assay, binding affinity and kinetics, CBL-B. To be noted: SPR at 10° C., biotinylated WT CBL-B (36-427) on streptavidin chip; geometric mean; read-out: CBL-B SPR Kd (nM) GMean. As to the method: as §1, §2, §3, §4, §5

For a further test, the target named is T4, C-CBL (residues 46-435) (Homo sapiens, UniProt P22681).
T4 construct: Purified CBL-B (residues 36-427) and C-CBL (residues 46-435) proteins from baculovirus-infected insect cells; made in house; host or cells: baculovirus-infected insect cells
T4 sequence (P22681 46-435): T1 sequence (P22681 46-435)
Put plainly: Ligand Displacement Assay (LDA), HTRF competitive binding against BODIPY-labeled fluorescent tracer, C-CBL. As to conditions: geometric mean of the number of tests, read-out: C-CBL Ki (nM) GMean.
Text: as §6, §7, §8

SMILES strings stand for the structures.

By Kd is commonly meant a measure of binding affinity in units of concentration. A word on the Ki: it is a measure of affinity in units of concentration, obtained from inhibition or displacement. As for `CCC(c1cccc(-c2n[nH]c3cnc(C(F)(F)F)cc23)c1)c1nncn1C` (single isomer, unassigned) [Example A2, 3-{3-[(1ξ)-1-(4-methyl-4H-1,2,4-triazol-3-yl)propyl]phenyl}-5-(trifluoromethyl)-1H-pyrazolo[3,4-c]pyridine], the Kd on C-CBL (46-435) was determined as 251 nM; at WT CBL-B (36-427), 35.8 nM. Further, the values for the Ki on CBL-B (residues 36-427) and on C-CBL (residues 46-435) were 80.4 nM and 224 nM, respectively.
Turning to `CC(C)NC(C)c1nc(C(F)(F)F)cc2c(-c3cccc(C4(Cc5nncn5C)COC4)c3)n[nH]c12` (single isomer, unassigned) [Example C79, N-{(1ξ)-1-[3-(3-{3-[(4-methyl-4H-1,2,4-triazol-3-yl)methyl]oxetan-3-yl}phenyl)-5-(trifluoromethyl)-1H-pyrazolo[3,4-c]pyridin-7-yl]ethyl}propan-2-amine], the values for the Kd on C-CBL (46-435) and on WT CBL-B (36-427) were 121 nM and 3.2 nM, respectively. The values for the Ki at CBL-B (residues 36-427) and at C-CBL (residues 46-435) were 20.4 nM and 94.1 nM, respectively.
In the case of `CC(C)NC(C)c1nc(C(F)(F)F)cc2c(-c3cccc(C4(Cc5nncn5C)COC4)c3)n[nH]c12` (single isomer, unassigned) [Example C80, N-{(1ξ)-1-[3-(3-{3-[(4-methyl-4H-1,2,4-triazol-3-yl)methyl]oxetan-3-yl}phenyl)-5-(trifluoromethyl)-1H-pyrazolo[3,4-c]pyridin-7-yl]ethyl}propan-2-amine], the Kd was 68.5 nM on C-CBL (46-435) and 1.7 nM on WT CBL-B (36-427). Besides, the inhibition constant (Ki) on CBL-B (residues 36-427) came to 10.1 nM; at C-CBL (residues 46-435), 71.5 nM.
The like results for `CC(N[C@H]1CCOC1)c1nc(C(F)(F)F)cc2c(-c3cccc(C4(Cc5nncn5C)COC4)c3)n[nH]c12` (single isomer, unassigned) [Example C81] were, in that order, 56.5 nM, 4.6 nM, 6.5 nM and 18.2 nM.
`CC(N[C@H]1CCOC1)c1nc(C(F)(F)F)cc2c(-c3cccc(C4(Cc5nncn5C)COC4)c3)n[nH]c12` (single isomer, unassigned) [Example C82]: the dissociation constant (Kd) on C-CBL (46-435) is 17 nM; on WT CBL-B (36-427), 2.3 nM. Besides, the values for the inhibition constant Ki at CBL-B (residues 36-427) and on C-CBL (residues 46-435) were 5.2 nM and 23.3 nM, respectively.
Consider `CCNC(C)c1nc(C(F)(F)F)cc2c(-c3cccc(C4(Cc5nncn5C)COC4)c3)n[nH]c12` (single isomer, unassigned) [Example C83, (1ξ)-N-ethyl-1-[3-(3-{3-[(4-methyl-4H-1,2,4-triazol-3-yl)methyl]oxetan-3-yl}phenyl)-5-(trifluoromethyl)-1H-pyrazolo[3,4-c]pyridin-7-yl]ethan-1-amine], for which the Kd came to 161 nM at C-CBL (46-435) and 12.4 nM on WT CBL-B (36-427). In addition, the Ki on CBL-B (residues 36-427) worked out at 37.1 nM; on C-CBL (residues 46-435), 137 nM.
Turning to `CCNC(C)c1nc(C(F)(F)F)cc2c(-c3cccc(C4(Cc5nncn5C)COC4)c3)n[nH]c12` (single isomer, unassigned) [Example C84, (1ξ)-N-ethyl-1-[3-(3-{3-[(4-methyl-4H-1,2,4-triazol-3-yl)methyl]oxetan-3-yl}phenyl)-5-(trifluoromethyl)-1H-pyrazolo[3,4-c]pyridin-7-yl]ethan-1-amine], the Kd came to 99 nM on C-CBL (46-435) and 5.8 nM at WT CBL-B (36-427). For the same compound, the Ki at CBL-B (residues 36-427) came to 25.1 nM; at C-CBL (residues 46-435), 144 nM.
In the case of `CC(N[C@@H]1CCOC1)c1nc(C(F)(F)F)cc2c(-c3cccc(C4(Cc5nncn5C)COC4)c3)n[nH]c12` (single isomer, unassigned) [Example C85], the results for the Kd on C-CBL (46-435) and on WT CBL-B (36-427) were 82.5 nM and 2.1 nM, respectively. Also, the Ki is 15.2 nM on CBL-B (residues 36-427) and 92.5 nM on C-CBL (residues 46-435).
The like results for `CC(N[C@@H]1CCOC1)c1nc(C(F)(F)F)cc2c(-c3cccc(C4(Cc5nncn5C)COC4)c3)n[nH]c12` (single isomer, unassigned) [Example C86] were, in that order, 60.3 nM, 5.1 nM, 9 nM and 49.4 nM.
On to `Cn1cnnc1[C@@H](c1cccc(-c2n[nH]c3c(CNC4CCNC(=O)C4)nc(C(F)(F)F)cc23)c1)C1CCC1` (single isomer, unassigned) [Example C87], for which the Kd at C-CBL (46-435) worked out at 175 nM; on WT CBL-B (36-427) it was 8.4 nM. The Ki on CBL-B (residues 36-427) was found to be 21.2 nM; at C-CBL (residues 46-435) it was 210 nM.
The like results for `Cn1cnnc1[C@@H](c1cccc(-c2n[nH]c3c(CNC4CCNC(=O)C4)nc(C(F)(F)F)cc23)c1)C1CCC1` (single isomer, unassigned) [Example C88] were, in that order, 59.7 nM, 4.8 nM, 7.2 nM and 132 nM.
As to `Cn1cnnc1CC1(c2cccc(-c3n[nH]c4c(OC5CCCC5)nc(C(F)(F)F)cc34)c2)COC1` [Example J7, 7-(cyclopentyloxy)-3-(3-{3-[(4-methyl-4H-1,2,4-triazol-3-yl)methyl]oxetan-3-yl}phenyl)-5-(trifluoromethyl)-1H-pyrazolo[3,4-c]pyridine], the Ki on CBL-B (residues 36-427) came to 92 nM; at C-CBL (residues 46-435), 420 nM.
In the same order, the values of `C[C@@H](N)c1nc(C(F)(F)F)cc2c(-c3cccc([C@H](c4nncn4C)C4CCCCC4)c3)n[nH]c12` [Example K1, (1R)-1-[3-{3-[(R)-cyclohexyl(4-methyl-4H-1,2,4-triazol-3-yl)methyl]phenyl}-5-(trifluoromethyl)-1H-pyrazolo[3,4-c]pyridin-7-yl]ethan-1-amine] are 36 nM and 289 nM.
The like results for `C[C@H](N)c1nc(C(F)(F)F)cc2c(-c3cccc([C@H](c4nncn4C)C4CCCCC4)c3)n[nH]c12` [Example K2, (1S)-1-[3-{3-[(R)-cyclohexyl(4-methyl-4H-1,2,4-triazol-3-yl)methyl]phenyl}-5-(trifluoromethyl)-1H-pyrazolo[3,4-c]pyridin-7-yl]ethan-1-amine] were, in that order, 48.6 nM and 287 nM.
The like results for `C[C@H](NC(=O)OC(C)(C)C)c1nc(C(F)(F)F)cc2c(-c3cccc(C4(Cc5nncn5C)COC4)c3)n[nH]c12` [Example K8] were, in that order, 33.4 nM and 133 nM.
Take `CC(=O)NC(C)c1nc(C(F)(F)F)cc2c(-c3cccc([C@H](c4nncn4C)C4CCC4)c3)n[nH]c12` (stereo partly drawn) [Example M3]: the Ki at CBL-B (residues 36-427) was found to be 29 nM; on C-CBL (residues 46-435), 214 nM.
